Data published in ChEMBL document CHEMBL3046781, “Resistance of Helicoverpa assulta (Guenée) (Lepidoptera: Noctuidae) to fenvalerate, phoxim and methomyl in China” (2009).

Assays:
Type in all cases: functional
[1] = test system: Helicoverpa assulta; assay: Insecticidal activity against sixth-instar larvae of Helicoverpa assulta YN5 at 1.8 to 183360 mg/l after 48 hr by chi-squared analysis
[2] = test system: Helicoverpa assulta; assay: Resistance factor, ratio of LD50 for sixth-instar larvae of Helicoverpa assulta GZ2 to LD50 for sixth-instar larvae of Helicoverpa assulta at 1.8 to 183360 mg/l
[3] = test system: Helicoverpa assulta; assay: Resistance factor, ratio of LD50 for sixth-instar larvae of Helicoverpa assulta YN6 to LD50 for sixth-instar larvae of Helicoverpa assulta at 39 to 12630 mg/l
[4] = test system: Helicoverpa assulta; assay: Resistance factor, ratio of LD50 for sixth-instar larvae of Helicoverpa assulta GZ5 to LD50 for sixth-instar larvae of Helicoverpa assulta at 39 to 12630 mg/l
[5] = test system: Helicoverpa assulta; assay: Insecticidal activity against sixth-instar larvae of Helicoverpa assulta HB2 at 39 to 12630 mg/l after 48 hr by chi-squared analysis
[6] = test system: Helicoverpa assulta; assay: Resistance factor, ratio of LD50 for sixth-instar larvae of Helicoverpa assulta FJ1 to LD50 for sixth-instar larvae of Helicoverpa assulta at 39 to 12630 mg/l
[7] = test system: Helicoverpa assulta; assay: Resistance factor, ratio of LD50 for sixth-instar larvae of Helicoverpa assulta YN7 to LD50 for sixth-instar larvae of Helicoverpa assulta at 39 to 12630 mg/l
[8] = test system: Helicoverpa assulta; assay: Insecticidal activity against sixth-instar larvae of Helicoverpa assulta FJ3 at 39 to 12630 mg/l after 48 hr by chi-squared analysis
[9] = test system: Helicoverpa assulta; assay: Insecticidal activity against sixth-instar larvae of Helicoverpa assulta YN6 at 39 to 12630 mg/l after 48 hr by chi-squared analysis
[10] = test system: Helicoverpa assulta; assay: Insecticidal activity against sixth-instar larvae of Helicoverpa assulta HN1 at 39 to 12630 mg/l after 48 hr by chi-squared analysis
[11] = test system: Helicoverpa assulta; assay: Insecticidal activity against sixth-instar larvae of Helicoverpa assulta HB1 at 21 to 3390 mg/l after 48 hr by chi-squared analysis
[12] = test system: Helicoverpa assulta; assay: Resistance factor, ratio of LD50 for sixth-instar larvae of Helicoverpa assulta GZ4 to LD50 for sixth-instar larvae of Helicoverpa assulta at 21 to 3390 mg/l
[13] = test system: Helicoverpa assulta; assay: Resistance factor, ratio of LD50 for sixth-instar larvae of Helicoverpa assulta GZ2 to LD50 for sixth-instar larvae of Helicoverpa assulta at 21 to 3390 mg/l
[14] = test system: Helicoverpa assulta; assay: Resistance factor, ratio of LD50 for sixth-instar larvae of Helicoverpa assulta FJ2 to LD50 for sixth-instar larvae of Helicoverpa assulta at 21 to 3390 mg/l

## CC(C)C(C(=O)OC(C#N)c1cccc(Oc2ccccc2)c1)c1ccc(Cl)cc1 (stereo not given) [FENVALERATE]
[1]
  LD90: 4567 µg/g
[1]; Helicoverpa assulta, YN5, 48 h
  LD50: 1430 mg/kg
[2]
  Ratio: 1042

## CCOP(=S)(OCC)O/N=C(\C#N)c1ccccc1 [PHOXIM]
[3]
  Ratio: 9.17
[4]
  Ratio: 7.1
[5]
  LD90: 37.4 µg/g
[5]; Helicoverpa assulta, HB2, 48 h
  LD50: 11.8 mg/kg
[6]
  Ratio: 7.13
[7]
  Ratio: 17.9
[8]
  LD90: 36.9 µg/g
[8]; Helicoverpa assulta, FJ3, 48 h
  LD50: 19 mg/kg
[9]
  LD90: 72 µg/g
[9]; Helicoverpa assulta, YN6, 48 h
  LD50: 21.3 mg/kg
[10]
  LD90: 23.1 µg/g
[10]; Helicoverpa assulta, HN1, 48 h
  LD50: 10.5 mg/kg

## CNC(=O)ON=C(C)SC [METHOMYL]
[11]
  LD90: 27.6 µg/g
[11]; Helicoverpa assulta, HB1, 48 h
  LD50: 12.2 mg/kg
[12]
  Ratio: 11.5
[13]
  Ratio: 13.9
[14]
  Ratio: 19.9
